Experimental findings from patent publication US11976083B2, “Inhibitors of peptidylarginine deiminases” (Gilead Sciences, Inc., priority 2020, dated 2024) are described below.

T1 sequence (Q9UM07 2-663): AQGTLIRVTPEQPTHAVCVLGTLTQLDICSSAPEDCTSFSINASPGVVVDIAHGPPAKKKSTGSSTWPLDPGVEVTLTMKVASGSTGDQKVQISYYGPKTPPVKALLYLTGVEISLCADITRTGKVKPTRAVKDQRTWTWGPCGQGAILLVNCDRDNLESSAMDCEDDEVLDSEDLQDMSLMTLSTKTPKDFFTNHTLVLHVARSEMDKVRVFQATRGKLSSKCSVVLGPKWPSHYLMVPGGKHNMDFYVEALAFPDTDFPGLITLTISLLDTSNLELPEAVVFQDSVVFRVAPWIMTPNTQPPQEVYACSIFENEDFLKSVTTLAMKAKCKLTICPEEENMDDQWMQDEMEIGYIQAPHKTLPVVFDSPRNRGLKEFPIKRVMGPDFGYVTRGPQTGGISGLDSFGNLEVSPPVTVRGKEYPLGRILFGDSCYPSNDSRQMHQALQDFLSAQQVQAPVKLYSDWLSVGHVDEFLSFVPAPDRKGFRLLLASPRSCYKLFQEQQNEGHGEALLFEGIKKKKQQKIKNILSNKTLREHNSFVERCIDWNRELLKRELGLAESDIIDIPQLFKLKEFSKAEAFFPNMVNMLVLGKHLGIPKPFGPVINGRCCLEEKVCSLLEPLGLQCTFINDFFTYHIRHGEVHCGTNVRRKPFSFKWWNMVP

The assay has as its target T1, human PAD4 (Homo sapiens, UniProt Q9UM07).
T1 construct: human PAD4 (NM_012387), A2-P663, was PCR amplified; His-SUMO (N, cleaved yes); made in house; host or cells: E. coli BL21(DE3)
Kind of assay: In vitro PAD4 BAEE biochemical assay. The settings on record: BAEE substrate 3 mM, 5 nM PAD4, 2 mM calcium chloride; geometric mean of multiple experiments. The method, boiled down: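 Fluorescence read-out (ex 405/em 535 nm) of isoindole formed from ammonia, o-phthalaldehyde and DTT after EDTA stop. Reaction: 5 nM PAD4, 2 mM CaCl2, 3 mM BAEE, 2 h, 25 °C, after 30 min enzyme–compound preincubation. Normalised to BB-Cl-Amidine (50 µM) and DMSO controls.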
With `COc1cc(C(=O)N2C[C@H]3CC[C@@H]2[C@@H]3N)cc2nc(-c3cc4ccc5nc4n3CCCCCc3cncc(F)c3C(=O)N[C@@H]5C)n(C)c12` [Example 658, (2~{R})-17-[5-[(1~{R},4~ {R},7~{R})-7-amino-2-azabicyclo[2.2.1]heptane-2-carbonyl]-7-methoxy-1-methyl-benzimidazol-2-yl]-6-fluoro-2-methyl-3,8,16,22-tetrazatetracyclo[14.5.2.0^ {5,10).0^{19,23}] tricosa-1(22),5,7,9,17,19(23), 20-heptaen-4-one], the IC50 came to 25 nM.

Regarding `[2H]C([2H])([2H])O[C@@H]1CCN(C(=O)c2cc(OC)c3c(c2)nc(-c2cc4ccc5nc4n2CCCCCc2cncc(F)c2C(=O)N[C@@H]5C)n3C)C[C@@H]1N` [Example 659, (2~{R})-17-[5-[(3~{S),4~{R})-3-amino-4-(trideuteriomethoxy)piperidine-1-carbonyl]-7-methoxy-1-methyl-benzimidazol-2-yl]-6-fluoro-2-methyl-3,8,16,22-tetrazatetracyclo[14.5.2.0^ {5,10}.0^{19,23}] tricosa-1(22),5,7,9,17,19(23), 20-heptaen-4-one], the IC50 is 32 nM.

`COc1cc(C(=O)N2CC[C@@H](O)[C@@H](N)C2)cc2nc(-c3cc4ccc5nc4n3CCCCCc3cncc(F)c3C(=O)N[C@@H]5C)n(C)c12` [Example 660, (2~{R})-17-[5-[(3~{S},4~{R})-3-amino-4-hydroxy-piperidine-1-carbonyl]-7-methoxy-1-methyl-benzimidazol-2-yl]-6-fluoro-2-methyl-3,8,16,22-tetrazatetracyclo[14.5.2.0^ {5,10}.0^{19,23}] tricosa-1(22),5,7,9,17,19(23), 20-heptaen-4-one]: the IC50 was found to be 16 nM.

With `CO[C@@H]1CCN(C(=O)c2cc(F)c3c(c2)nc(-c2cc4ccc5nc4n2CCCCCc2cncc(Cl)c2C(=O)N[C@@H]5C)n3C2CC2)C[C@@H]1N` [Example 661, (2~{R})-17-[5-[(3~{S),4~ {R})-3-amino-4-methoxy-piperidine-1-carbonyl]-1-cyclopropyl-7-fluoro-benzimidazol-2-yl]-6-chloro-2-methyl-3,8,16,22-tetrazatetracyclo[14.5.2.0^ {5,10).0^{19,23}] tricosa-1(22),5,7,9,17,19(23), 20-heptaen-4-one], the IC50 amounted to 27 nM.

Consider `CO[C@@H]1CCN(C(=O)c2cc(F)c3c(c2)nc(-c2cc4ccc5nc4n2CCCCCc2cncc(F)c2C(=O)N[C@@H]5C)n3C2CC2)C[C@@H]1N` [Example 662, (2~{R})-17-[5-[(3~{S},4~ {R})-3-amino-4-methoxy-piperidine-1-carbonyl]-1-cyclopropyl-7-fluoro-benzimidazol-2-yl]-6-fluoro-2-methyl-3,8,16,22-tetrazatetracyclo[14.5.2.0^ {5,10}.0^{19,23}] tricosa-1(22),5,7,9,17,19(23), 20-heptaen-4-one], for which the IC50 was 32 nM.

On to `COc1cc(C(=O)N2CC[C@@H](OC)[C@@H](N)C2)cc2nc(-c3cc4ccc5nc4n3CCCCCc3ccnc(C4CC4)c3C(=O)N[C@@H]5C)n(C)c12` [Example 663, (2~{R})-17-[5-[(3~{S),4~ {R})-3-amino-4-methoxy-piperidine-1-carbonyl]-7-methoxy-1-methyl-benzimidazol-2-yl]-6-cyclopropyl-2-methyl-3,7,16,22-tetrazatetracyclo[14.5.2.0^ {5,10}.0^{19,23}] tricosa-1(22),5,7,9,17,19(23), 20-heptaen-4-one], for which the IC50 worked out at 71 nM.

On to `COc1cc(C(=O)N2CCC[C@@H](N)[C@H]2C)cc2nc(-c3cc4ccc5nc4n3CCCCCc3ccnc(C4CC4)c3C(=O)N[C@@H]5C)n(C)c12` [Example 664, (2~{R})-17-[5-[(2~{R},3~ {R})-3-amino-2-methyl-piperidine-1-carbonyl]-7-methoxy-1-methyl-benzimidazol-2-yl]-6-cyclopropyl-2-methyl-3,7,16,22-tetrazatetracyclo[14.5.2.0^ {5,10}.0^{19,23}] tricosa-1(22),5,7,9,17,19(23), 20-heptaen-4-one], for which the IC50 was 51 nM.

Regarding `COc1cc(C(=O)N2C[C@H](N)[C@@H]3CC[C@H]2C3)cc2nc(-c3cc4ccc5nc4n3CCCCCc3cc(Cl)ncc3C(=O)N[C@@H]5C)n(C)c12` [Example 665, (2~{R})-17-[5-[(1~{S),4~{R}, 5~{R})-4-amino-2-azabicyclo[3.2.1]octane-2-carbonyl]-7-methoxy-1-methyl-benzimidazol-2-yl]-8-chloro-2-methyl-3,7,16,22-tetrazatetracyclo[14.5.2.0^ {5,10).0^{19,23}]tricosa-1(22),5(10),6,8,17,19(23),20-heptaen-4-one], the IC50 turned out to be 26 nM.

Consider `COc1cc(C(=O)N2C[C@H]3C[C@@H]2[C@@H]3N)cc2nc(-c3cc4ccc5nc4n3CC(F)(F)CCC[C@@H]3C[C@H]3C(=O)N[C@@H]5C)n(C)c12` [Example 666, (2~{R},5~{R},7~{R})-14-[5-[(1~{R},4~{R},5~{R})-5-amino-2-azabicyclo [2.1.1]hexane-2-carbonyl]-7-methoxy-1-methyl-benzimidazol-2-yl]-11,11-difluoro-2-methyl-3,13,19-triazatetracyclo [11.5.2.0^{5,7}.0^{16,20}] icosa-1(19),14,16(20),17-tetraen-4-one], for which the IC50 is 86 nM.

Consider `COc1cc(C(=O)N2C[C@H]3C[C@@H]2[C@@H]3N)cc2nc(-c3cc4ccc5nc4n3CCCCCCC(C)(C)C(=O)N[C@@H]5C)n(C)c12` [Example 667, (11~{R})-17-[5-[(1~{R},4~ {R},5~{R})-5-amino-2-azabicyclo[2.1.1]hexane-2-carbonyl]-7-methoxy-1-methyl-benzimidazol-2-yl]-8,8,11-trimethyl-1,10,19-triazatricyclo[10.5.2.0^ {15,18}]nonadeca-12(19), 13,15(18),16-tetraen-9-one], for which the IC50 was 70 nM.

Consider `COc1cc(C(=O)N2C[C@H](N)[C@@H]3CC[C@H]2[C@H]3F)cc2nc(-c3cc4ccc5nc4n3CC(F)(F)CCC[C@@H]3C[C@H]3C(=O)N[C@@H]5C)n(C)c12` [Example 668, (2~{R},5~{R},7~{R})-14-[5-[(1~{S},4~{R},5~ {S},8~{S})-4-amino-8-fluoro-2-azabicyclo [3.2.1]octane-2-carbonyl]-7-methoxy-1-methyl-benzimidazol-2-yl]-11,11-difluoro-2-methyl-3,13,19-triazatetracyclo [11.5.2.0^{5,7}.0^{16,20}] icosa-1(19),14,16(20), 17-tetraen-4-one], for which the IC50 was 22 nM.

Turning to `C[C@H]1NC(=O)c2ccc(Cl)nc2CCCCCn2c(-c3nc4cc(C(=O)N5C[C@H](N)[C@@H]6CC[C@H]5[C@H]6F)cc(F)c4n3C3CC3)cc3ccc1nc32` [Example 669, (2~{R})-17-[5-[(1~{S}, 4~{R},5~{S},8~{S})-4-amino-8-fluoro-2-azabicyclo[3.2.1]octane-2-carbonyl]-1-cyclopropyl-7-fluoro-benzimidazol-2-yl]-8-chloro-2-methyl-3,9,16,22-tetrazatetracyclo[14.5.2.0^ {5,10).0^{19,23}]tricosa-1(22),5(10),6,8,17,19(23),20-heptaen-4-one], the IC50 turned out to be 45 nM.

Regarding `Cc1ccc2c(n1)CCCCCn1c(-c3nc4cc(C(=O)N5C[C@H](N)[C@@H]6CC[C@H]5C6)cc(F)c4n3C3CC3)cc3ccc(nc31)[C@@H](C)NC2=O` [Example 670, (2~{R})-17-[5-[(1~{S),4~{R}, 5~{R})-4-amino-2-azabicyclo[3.2.1]octane-2-carbonyl]-1-cyclopropyl-7-fluoro-benzimidazol-2-yl]-2,8-dimethyl-3,9,16,22-tetrazatetracyclo[14.5.2.0^ {5,10).0^{19,23}]tricosa-1(22),5(10),6,8,17,19(23), 20-heptaen-4-one], the IC50 worked out at 6 nM.

For `C[C@H]1NC(=O)c2c(ccnc2C2CC2)CCCCCn2c(-c3nc4cc(C(=O)N5C[C@H](N)[C@@H]6CC[C@H]5C6)cc(F)c4n3C3CC3)cc3ccc1nc32` [Example 671, (2~{R})-17-[5-[(1~{S),4~ {R},5~{R})-4-amino-2-azabicyclo[3.2.1]octane-2-carbonyl]-1-cyclopropyl-7-fluoro-benzimidazol-2-yl]-6-cyclopropyl-2-methyl-3,7,16,22-tetrazatetracyclo [14.5.2.0^{5,10}.0^{19,23}] tricosa-1(22),5(10),6,8,17, 19(23),20-heptaen-4-one], the IC50 was 20 nM.

`C[C@H]1NC(=O)c2cc(Cl)ncc2CCCCCn2c(-c3nc4cc(C(=O)N5C[C@H](N)[C@@H]6CC[C@H]5C6)cc(F)c4n3C3CC3)cc3ccc1nc32` [Example 672, (2~{R})-17-[5-[(1~{S},4~ {R},5~{R})-4-amino-2-azabicyclo[3.2.1]octane-2-carbonyl]-1-cyclopropyl-7-fluoro-benzimidazol-2-yl]-7-chloro-2-methyl-3,8,16,22-tetrazatetracyclo [14.5.2.0^{5,10}.0^{19,23}] tricosa-1(22),5(10),6,8,17,19 (23),20-heptaen-4-one]: the IC50 was found to be 28 nM.

Consider `COc1cc(C(=O)N2C[C@H](N)[C@@H]3CC[C@H]2C3)cc2nc(-c3cc4ccc5nc4n3CCCCCc3ccccc3C(=O)N[C@@H]5C)n(C3CC3)c12` [Example 673, (2~{R})-17-[5-[(1~{S},4~ {R},5~{R})-4-amino-2-azabicyclo[3.2.1]octane-2-carbonyl]-1-cyclopropyl-7-methoxy-benzimidazol-2-yl]-2-methyl-3,16,22-triazatetracyclo[14.5.2.0^ {5,10}.0^{19,23}] tricosa-1(22),5(10),6,8, 17,19(23),20-heptaen-4-one], for which the IC50 is 27 nM.
